Reference: PMC5457512, “Structural basis for perception of diverse chemical substances by T1r taste receptors” (Nature Communications, 2017)
Where two headings read alike, the source gives them in different places. Each block holds one molecule with its values, some of them ahead of it.

Key:
[1] = target: full-length T1r2a–T1r3 receptor (Oryzias latipes, UniProt A0A173M094+A0A173M0G2); test: Ca2+ flux assay of full-length receptor in HEK293 (Flip-In 293) cells; assay type: cell-based, medaka fish (Oryzias latipes); details: for Response of the full-length receptor according to Ca2+-imaging: qualitative, tested up to 10 mM
Procedure: (§1) The Ca^2+ flux assays were performed using a FLEX station 3 (Molecular Devices, LLC) for the cells loaded with 100 μl of Hank's balanced salt solution (Sigma-Aldrich), containing 5 μM of the calcium indicator dye Fluo8 NW (AAT Bioquest). The stimulation was performed by adding 25 μl of 5 × concentrated solutions of taste substances, using a pipette. The intensity of the response was represented as ΔRFU (delta relative fluorescence unit) defined as maximum fluorescence value for the taste substances minus that for the Hank's Balanced Salt Solution, and was plotted versus the ligand concentration. The concentration-response curves were fitted to the Hill equation, using SigmaPlot software (Systat Software).

human T1r1–T1r3 = tested on: human T1r1–T1r3; parameters: method as in PMID 24214976; details: cited from earlier work
[2] = target: T1r2a–T1r3LBD heterodimer (Oryzias latipes, UniProt A0A173M094+A0A173M0G2); test: FRET signal change of T1r2aLBD-Cerulean and T1r3LBD-Venus heterodimer on amino acid binding; details: for FRET signal elevation of fluorescence-labelled LBDs: qualitative
Procedure: The conformational change of T1r2a–T1r3LBD on ligand binding was analysed by Förster resonance energy transfer (FRET) measurement. The heterodimer of the T1r2aLBD (M1-S474)—Celurean fusion protein (T1r2aL-Ce) and the T1r3LBD (M1-S491)—Venus fusion protein (T1r3L-Ve) was stably expressed by S2 cells (Invitrogen) and purified by ANTI-FLAG M2 affinity gel (SIGMA) by use of the FLAG-tag at their C termini, as previously described[22]. […] The titration curves were fitted to the Hill equation by using KaleidaGraph (Synergy Software).
Therefore, at least two independent measurements were performed in this study, except for the inset in Fig. 2a with a single analysis.

[3] = cited from earlier work; for Hydropathy index: ref Handbook of Chemistry and Physics, CRC Press; for pI: ref Kyte & Doolittle, J. Mol. Biol., 157, 105-132, 1982; for Volume: ref Tsai et al. J. Mol. Biol., 290, 253-266,1999
T1r2a–T1r3:S300E mutant = target: T1, T1r2a–T1r3:S300E mutant (Oryzias latipes, UniProt A0A173M0G2); test: cell-based; parameters: species or system medaka fish (Oryzias latipes)
T1 sequence (A0A173M0G2 12-802): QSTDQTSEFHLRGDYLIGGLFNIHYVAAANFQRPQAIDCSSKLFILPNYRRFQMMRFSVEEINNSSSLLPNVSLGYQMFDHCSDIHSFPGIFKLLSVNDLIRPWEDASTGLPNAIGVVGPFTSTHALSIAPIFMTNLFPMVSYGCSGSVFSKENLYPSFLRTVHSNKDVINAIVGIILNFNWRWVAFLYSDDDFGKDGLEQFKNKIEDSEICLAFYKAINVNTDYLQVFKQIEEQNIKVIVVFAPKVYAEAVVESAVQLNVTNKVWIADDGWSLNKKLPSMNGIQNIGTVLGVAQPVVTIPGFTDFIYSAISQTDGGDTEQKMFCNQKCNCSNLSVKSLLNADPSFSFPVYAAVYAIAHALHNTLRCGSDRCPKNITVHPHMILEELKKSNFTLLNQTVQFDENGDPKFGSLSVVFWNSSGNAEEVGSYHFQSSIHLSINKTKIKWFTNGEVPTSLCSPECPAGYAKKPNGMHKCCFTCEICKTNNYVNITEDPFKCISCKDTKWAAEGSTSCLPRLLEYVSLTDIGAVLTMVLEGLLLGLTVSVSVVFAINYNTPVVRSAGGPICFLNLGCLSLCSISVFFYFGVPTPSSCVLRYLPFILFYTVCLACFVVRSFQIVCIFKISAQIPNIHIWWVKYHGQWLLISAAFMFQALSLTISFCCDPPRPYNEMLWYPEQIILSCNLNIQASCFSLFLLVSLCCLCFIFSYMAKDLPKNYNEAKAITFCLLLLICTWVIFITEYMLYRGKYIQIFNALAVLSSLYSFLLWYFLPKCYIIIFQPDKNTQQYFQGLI
T1 sequence (A0A173M094 12-836 partner): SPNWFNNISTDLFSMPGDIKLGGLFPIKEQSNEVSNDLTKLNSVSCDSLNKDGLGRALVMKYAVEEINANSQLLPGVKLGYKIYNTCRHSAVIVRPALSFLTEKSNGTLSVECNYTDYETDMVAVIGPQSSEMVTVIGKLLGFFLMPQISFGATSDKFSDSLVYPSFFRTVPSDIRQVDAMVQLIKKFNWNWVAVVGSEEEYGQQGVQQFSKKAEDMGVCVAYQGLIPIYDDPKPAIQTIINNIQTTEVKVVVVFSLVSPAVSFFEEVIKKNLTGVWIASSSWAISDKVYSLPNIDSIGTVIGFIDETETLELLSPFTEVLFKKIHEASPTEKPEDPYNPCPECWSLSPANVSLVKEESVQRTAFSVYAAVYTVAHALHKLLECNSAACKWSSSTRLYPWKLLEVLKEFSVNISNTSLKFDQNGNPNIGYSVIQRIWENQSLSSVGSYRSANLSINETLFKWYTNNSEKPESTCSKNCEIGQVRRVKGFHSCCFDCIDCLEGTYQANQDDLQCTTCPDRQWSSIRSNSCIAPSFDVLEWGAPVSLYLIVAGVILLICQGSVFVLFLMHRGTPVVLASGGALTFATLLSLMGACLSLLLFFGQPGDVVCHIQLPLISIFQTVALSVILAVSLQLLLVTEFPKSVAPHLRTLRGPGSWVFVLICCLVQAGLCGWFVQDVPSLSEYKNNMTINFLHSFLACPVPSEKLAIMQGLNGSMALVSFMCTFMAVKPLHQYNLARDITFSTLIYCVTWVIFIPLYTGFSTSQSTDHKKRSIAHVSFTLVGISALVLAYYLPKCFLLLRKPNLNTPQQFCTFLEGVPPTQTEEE
Procedure: as §1
Mutations were introduced using QuikChange (Agilent Technologies) or PrimeStarMax (TAKARA BIO, only for T1r2a:S165I) with primers summarized in Supplementary Table 3.

[4] = target: T2, T1r2a-T1r3LBD heterodimer, medaka fish (Oryzias latipes (medaka fish), UniProt A0A173M0G2;A0A173M094, glycosyl chains trimmed to single N-acetylglucosamine residues by Endo H | glycosyl chains trimmed to single N-acetylglucosamine residues by Endo H); test: crystal structure; T1r2a-3LBD heterodimer co-crystallised with Fab16A, with bound L-Gln, L-Ala, L-Arg, L-Glu or Gly; sitting-drop vapor diffusion with microseeding, PEG 1500, PEG400, 0.1 M MES pH 6.0, 293 K; details: both partners purified
T2 construct: signal peptide in the construct; The two chains are joined by an intermolecular disulfide bridge, Cys344 (T1r2a) to Cys132 (T1r3); also called T1r2a-3LBD; T1r2aLBD-T1r3LBD heterodimer; source: S2 cells, stably co-expressed (5 uM kifunensine), from culture medium, purified (ANTI-FLAG M2, factor Xa, Endo H, SEC); not shown: FLAG, C-terminal, cleaved; copies: 1 + 1

[5] = fitted parameter ± s.e. of Hill equation, Fig. 2b, intracellular Ca2+ elevation, HEK293, read-out: EC50 Receptor responses, T1r2a wt T1r3 wt
[6] = fitted parameter ± s.e. of Hill equation, intracellular Ca2+ elevation, HEK293, read-out: EC50 Receptor responses, T1r2a wt T1r3 S300E

Molecule: N[C@@H](CCC(=O)O)C(=O)O [L-Glutamate]
Response of the full-length receptor according to Ca2+-imaging ([1]; Fig. 2b): poor or no significant receptor responses | EC50 (human T1r1–T1r3): ~2700 µM | EC50 [2]: 1070 ± 382 µM | FRET signal elevation of fluorescence-labelled LBDs ([2]; Fig. 2a): induced FRET signal elevation | Maximum FRET change at saturating concentrations ([2]; compared with glutamine, Fig. 2a): larger changes | Hydropathy index [3]: -3.5 | pI [3]: 3.22 | Volume [3]: 142.2 Å3

Response of the full-length receptor according to Ca2+-imaging ([1]; Fig. 2b): induced responses | EC50 [1, 5]: 70 ± 8 µM | EC50 [2]: 11.5 ± 3.4 µM | FRET signal elevation of fluorescence-labelled LBDs ([2]; Fig. 2a): induced FRET signal elevation | EC50 (T1r2a–T1r3:S300E mutant; [6]): 200 ± 19 µM
Molecule: NC(=O)CC[C@H](N)C(=O)O [L-Glutamine]

Molecule: N=C(N)NCCC[C@H](N)C(=O)O [L-Arginine]
EC50 [1]: 470 ± 297 µM | Response of the full-length receptor according to Ca2+-imaging ([1]; Fig. 2b): induced responses | EC50 [2]: 190 ± 35 µM | FRET signal elevation of fluorescence-labelled LBDs ([2]; Fig. 2a): induced FRET signal elevation | Hydropathy index [3]: -4.5 | pI [3]: 10.76 | Volume [3]: 194.0 Å3 | EC50 (T1r2a–T1r3:S300E mutant): 1300 ± 100 µM

Molecule: C[C@H](N)C(=O)O [L-Alanine]
Response of the full-length receptor according to Ca2+-imaging ([1]; Fig. 2b): induced responses | EC50 [1, 5]: 2460 ± 2670 µM | EC50 [2]: 141 ± 37 µM | FRET signal elevation of fluorescence-labelled LBDs ([2]; Fig. 2a): induced FRET signal elevation | Hydropathy index [3]: 1.8 | pI [3]: 6.00 | Volume [3]: 90.0 Å3 | EC50 (T1r2a–T1r3:S300E mutant; [6]): 1800 ± 300 µM

Molecule: NCC(=O)O [Glycine]
Response of the full-length receptor according to Ca2+-imaging ([1]; Fig. 2b): poor or no significant receptor responses | FRET signal elevation of fluorescence-labelled LBDs ([2]; Fig. 2a): induced FRET signal elevation | EC50 ([2]; read-out: EC50 FRET changes of LBD, T1r2aLBD wt T1r3LBD wt, fitted parameter ± s.e. of Hill equation, Fig. 2a, room temperature): 6180 ± 3320 µM

Molecule: NC(=O)CCC(N)C(=O)O (stereo in doubt) [D-glutamine]
FRET signal elevation of fluorescence-labelled LBDs, L- versus D-glutamine comparison ([2]; Fig. 2a inset, 283 K, single analysis): but not D-glutamine, induced FRET signal elevation

binding result [4]: binds
B1: Fab16A, Fab fragment of the anti-T1r2a-3LBD monoclonal antibody clone 16A (Fab, V domains shown)
VH: EVQLQQSGPELVKPGASMKISCKASGYSFTGYSMNWVKQSHGKNLEWIGLINPYNGDTTYKQKFKGKATLTVDRSSSTAYMELLRLTSEDSAVYYCARSGRGAPTTTTAWFTYWGQGTLVTVSA
VL: DIVLTQSPASLAVSLGQRATISCRASESVDSYGNSFMHWYQQKPGQPPILLISRASNLESGIPARFSGSGSRTDFTLTINPVEADDFATYYCQQTNEDPRTFGGGTKLEIK
notes: Parent antibody is mouse IgG1:kappa; Fab made by papain digestion; also called anti-T1r2a-3LBD mAb clone 16A; source: mouse hybridoma (Mikuri Immunological Lab. Co.); IgG digested with Immobilized-Papain, purified (Protein A Sepharose, Mono S)
